Laboratory results from ChEMBL document CHEMBL1138327, “Metal-based paullones as putative CDK inhibitors for antitumor chemotherapy” (2007).

How the values were obtained:
Type in all cases: functional
A549 [1] = assay: Cell cycle arrest in human A549 cells assessed as accumulation at S phase at 30 nM after 24 hrs by flow cytometry
A549 [2] = assay: Cell cycle arrest in human A549 cells assessed as accumulation at G2/M phase at 30 nM after 24 hrs by flow cytometry
A549 [3] = assay: Cell cycle arrest in human A549 cells assessed as accumulation at G0/G1 phase at 30 nM after 24 hrs by flow cytometry

SMILES: CN[C@@H]1C[C@H]2O[C@@](C)([C@@H]1OC)n1c3ccccc3c3c4c(c5c6ccccc6n2c5c31)C(=O)NC4 [STAUROSPORINE]
- Activity (A549 [1]): 16.4%
- Activity (A549 [2]): 9.1%
- Activity (A549 [3]): 74.6%
